Source: ChEMBL document CHEMBL1201862, “PubChem BioAssay data set” (2004)
Calls of active or inactive are those of the source. Residues, ends and D or L forms follow the SMILES beside them. *: point of attachment. Boc = CC(C)(C)OC(=O)*; Bn = c1ccc(C*)cc1

Key:
[1] = biological target: T1, RNA-binding protein pos-1 (Caenorhabditis elegans, UniProt G5EF15); assay: inhibitors of POS-1/mex-3 RNA binding, dose response, biochemical, fluorescence polarization (AID 1964);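 note: purified POS-1 fused to maltose binding protein made in E. coli; potency of compounds blocking POS-1 binding to fluorescent RNA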
T1 sequence (G5EF15 whole entry): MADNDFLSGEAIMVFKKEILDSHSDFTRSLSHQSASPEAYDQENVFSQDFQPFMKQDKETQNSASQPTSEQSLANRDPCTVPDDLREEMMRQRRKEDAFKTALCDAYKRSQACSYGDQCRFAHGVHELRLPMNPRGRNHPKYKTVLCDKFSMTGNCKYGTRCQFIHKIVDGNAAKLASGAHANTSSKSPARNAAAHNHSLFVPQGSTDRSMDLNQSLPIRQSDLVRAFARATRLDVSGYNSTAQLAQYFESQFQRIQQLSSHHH

[2] = biological target: T2, Zinc finger protein mex-5 (Caenorhabditis elegans, UniProt Q9XUB2); assay: MEX-5/TCR-2 RNA interaction inhibitors, dose response, biochemical, C. elegans, fluorescence polarization (AID 1960)
T2 sequence (Q9XUB2 whole entry): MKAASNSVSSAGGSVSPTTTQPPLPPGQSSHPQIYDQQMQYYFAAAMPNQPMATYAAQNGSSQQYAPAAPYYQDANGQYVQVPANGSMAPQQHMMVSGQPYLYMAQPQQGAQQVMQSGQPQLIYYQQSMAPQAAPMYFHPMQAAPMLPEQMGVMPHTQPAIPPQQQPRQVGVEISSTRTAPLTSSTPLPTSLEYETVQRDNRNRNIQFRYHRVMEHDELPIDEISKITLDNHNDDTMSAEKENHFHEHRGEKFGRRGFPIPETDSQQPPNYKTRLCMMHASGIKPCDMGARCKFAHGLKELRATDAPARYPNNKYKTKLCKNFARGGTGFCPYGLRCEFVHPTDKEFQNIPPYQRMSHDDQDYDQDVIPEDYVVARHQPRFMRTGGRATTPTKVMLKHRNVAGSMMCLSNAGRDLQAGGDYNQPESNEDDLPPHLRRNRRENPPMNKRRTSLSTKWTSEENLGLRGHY

H4 = assay: Luminescence Cell-Based Dose Response HTS to Identify Activators of 5'UTR Stem-Loop Driven Prion Protein mRNA Translation in H4 Neuroglioblastoma Cells. [Related pubchem assays: 1829 (Project Summary), 1814 (Primary HTS)]; assay type: functional; settings: Homo sapiens
[3] = tested on: Streptococcus sp. 'group A'; assay: growth inhibition of control SK(-) GAS strain, dose response, counter-screen for streptokinase expression inhibitor project, luminescence, kanamycin, BacTiterGlo, confirmation (AID 1900); assay type: functional, organism-based
Streptokinase A = biological target: T3, Streptokinase A (Streptococcus pyogenes serotype M1, UniProt P10520); assay: S. pyogenes streptokinase expression inhibitors, potency, dose response, plasminogen activation absorbance, OD405 (AID 1914); assay type: functional, Streptococcus pyogenes M1 GAS;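 note: secreted streptokinase activity via plasminogen activation per viability signal from cell pellet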
T3 sequence (P10520 whole entry): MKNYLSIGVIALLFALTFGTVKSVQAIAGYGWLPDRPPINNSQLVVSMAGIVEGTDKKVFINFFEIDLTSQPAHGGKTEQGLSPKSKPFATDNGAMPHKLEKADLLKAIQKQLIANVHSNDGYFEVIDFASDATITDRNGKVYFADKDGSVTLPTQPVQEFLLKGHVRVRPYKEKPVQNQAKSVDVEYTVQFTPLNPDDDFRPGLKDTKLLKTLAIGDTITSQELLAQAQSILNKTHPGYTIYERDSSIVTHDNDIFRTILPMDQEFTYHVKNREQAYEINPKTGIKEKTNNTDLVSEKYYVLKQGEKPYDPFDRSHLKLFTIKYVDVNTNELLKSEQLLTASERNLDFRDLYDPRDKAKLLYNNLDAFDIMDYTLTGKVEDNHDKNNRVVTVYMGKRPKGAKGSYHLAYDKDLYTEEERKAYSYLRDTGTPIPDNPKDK

Streptococcus = assay: Group A Streptococcus viability loss, dose response, counter-screen for streptokinase expression inhibitor project, luminescence, BacTiterGlo (AID 1915); assay type: functional, organism-based;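 note: potency for reduction of bacterial viability or growth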
Cytochrome P450 2C9 = Cytochrome P450 2C9 (Homo sapiens, UniProt P11712)
Cytochrome P450 2C9, sequence (P11712 whole entry): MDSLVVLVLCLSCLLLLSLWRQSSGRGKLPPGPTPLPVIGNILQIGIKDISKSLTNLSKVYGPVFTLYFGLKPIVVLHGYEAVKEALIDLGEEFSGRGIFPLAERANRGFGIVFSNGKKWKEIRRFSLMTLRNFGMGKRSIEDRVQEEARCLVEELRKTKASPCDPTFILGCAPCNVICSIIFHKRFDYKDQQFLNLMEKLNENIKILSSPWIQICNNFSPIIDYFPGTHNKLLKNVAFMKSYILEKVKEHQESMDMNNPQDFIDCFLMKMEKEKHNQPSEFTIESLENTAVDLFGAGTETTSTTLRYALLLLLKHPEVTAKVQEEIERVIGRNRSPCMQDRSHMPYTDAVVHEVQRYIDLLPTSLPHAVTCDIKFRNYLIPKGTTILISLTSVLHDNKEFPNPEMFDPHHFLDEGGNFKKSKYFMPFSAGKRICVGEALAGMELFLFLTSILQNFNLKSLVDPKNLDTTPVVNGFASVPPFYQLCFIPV

[4] = Luminescence Cell-Based Dose Retest to Confirm Inhibitors of Cancer Stem Cells. [Related pubchem assays (depositor defined):AID2717, AID2721]; assay type: functional; settings: Homo sapiens
[5] = NIH-3T3 fibroblast cytotoxicity, dose response, cytotoxicity control, cell-based, fluorescence, Alamar Blue, secondary assay (AID 2327); assay type: functional;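 note: NIH-3T3 mouse fibroblasts cultured with fluconazole at 8 µg/mL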
[6] = C. albicans growth with fluconazole, confirmation, fluorescence, retest (AID 2467); assay type: functional, cell-based
Cytochrome P450 3A4 = Cytochrome P450 3A4 (Homo sapiens, UniProt P08684);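 note: CYP3A4 tested as one member of a cytochrome P450 panel screen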
Cytochrome P450 3A4, sequence (P08684 whole entry): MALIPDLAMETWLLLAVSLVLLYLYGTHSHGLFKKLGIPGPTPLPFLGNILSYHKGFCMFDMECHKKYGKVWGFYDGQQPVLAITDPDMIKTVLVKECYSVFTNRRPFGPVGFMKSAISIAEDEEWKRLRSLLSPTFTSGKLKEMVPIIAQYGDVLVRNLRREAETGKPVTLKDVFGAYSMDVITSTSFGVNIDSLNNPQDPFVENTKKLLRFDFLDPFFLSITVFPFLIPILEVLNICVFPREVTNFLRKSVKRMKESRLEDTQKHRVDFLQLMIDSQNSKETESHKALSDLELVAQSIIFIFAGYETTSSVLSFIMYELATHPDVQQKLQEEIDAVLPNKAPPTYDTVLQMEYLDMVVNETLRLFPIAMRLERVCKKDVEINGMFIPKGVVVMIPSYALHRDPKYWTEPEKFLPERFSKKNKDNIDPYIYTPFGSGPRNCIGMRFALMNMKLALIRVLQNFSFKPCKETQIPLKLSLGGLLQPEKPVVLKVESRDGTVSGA

Cytochrome P450 2C19 = Cytochrome P450 2C19 (Homo sapiens, UniProt P33261); assay: Cytochrome panel assay with activity outcomes. Panel member name: p450-cyp2c19 Compounds with AC50 equal or less than 10 uM are considered active; assay type: functional; settings: read-out: AC50
Cytochrome P450 2C19, sequence (P33261 whole entry): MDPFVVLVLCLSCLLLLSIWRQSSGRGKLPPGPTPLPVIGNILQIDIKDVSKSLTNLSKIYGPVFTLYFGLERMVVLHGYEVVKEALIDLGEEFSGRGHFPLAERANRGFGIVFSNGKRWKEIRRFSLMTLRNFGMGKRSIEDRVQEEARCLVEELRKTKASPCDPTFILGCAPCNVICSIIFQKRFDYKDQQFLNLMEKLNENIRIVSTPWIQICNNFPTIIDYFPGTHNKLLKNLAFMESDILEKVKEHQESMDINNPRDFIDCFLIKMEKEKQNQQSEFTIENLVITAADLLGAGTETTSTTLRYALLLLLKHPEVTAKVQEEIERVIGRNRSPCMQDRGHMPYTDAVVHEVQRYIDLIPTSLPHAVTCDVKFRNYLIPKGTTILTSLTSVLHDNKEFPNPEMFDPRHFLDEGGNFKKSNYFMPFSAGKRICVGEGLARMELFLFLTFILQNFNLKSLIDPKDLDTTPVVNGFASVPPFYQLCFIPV

[7] = Luminescence Cell-Based Dose Response HTS to Identify Activators of Luciferase Translation or Activity in H4 […] Cells. [Related pubchem assays: 1829 (Project Summary), 1814 (Primary HTS)]; assay type: functional
INS1 = assay: beta cell apoptosis inhibitors, cytokine rescue, dose response, luminescence, retest (AID 449756); assay type: functional, cell-based; settings: Rattus norvegicus;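 note: cell death triggered by IL-1 beta plus TNF-alpha plus IFN-gamma mixture; protective hits raise ATP signal compared with cytokine alone wells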

Cc1noc(/C=C/N(C)C)c1S(=O)(=O)N1CCC(C(=O)O)CC1
EC50 [1]: > 300 µM (not active)
EC50 [2]: > 300 µM (not active)

CC1(OC(=O)c2ccc(Cl)nc2)C(=O)C=C2C=C(C3CC3)OC=C2C1=O (stereo not drawn)
EC50 [1]: 15.1 µM (active)
EC50 [2]: 14.3 µM (active)

Cc1ccccc1/C=C/c1nc(O)c2ccccc2n1
EC50 (H4): 1.13 µM (active)

Cc1cc(Cl)c2oc(C(=O)N3CCC(O)(c4ccccc4)CC3)c(C)c2c1
EC50 [3]: 5.13 µM (active)
EC50 (Streptokinase A): > 150 µM (not active)
EC50 (Streptococcus): 14.8 µM (active)

C/C(NCc1ccco1)=C1\C(=O)NC(=O)N(c2ccccc2)C1=O
AC50 (Cytochrome P450 2C9): 39.8 µM (inconclusive)

CC(C)c1ccc(NC(=O)NC(C)c2ccc3c(c2)OCO3)cc1 (stereo not drawn)
EC50 [3]: > 150 µM (not active)
EC50 (Streptokinase A): > 150 µM (not active)
EC50 (Streptococcus): > 150 µM (not active)

CC(C)CCC(CCNCc1ccccn1)c1ccc(Cl)cc1 (stereo not drawn)
EC50 [3]: 7.65 µM (active)
EC50 (Streptokinase A): > 150 µM (not active)
EC50 (Streptococcus): 132 µM (active)

COC(=O)CCCC1=CC2=CC(=O)C(C)(O)C(=O)C2=CO1 (stereo not drawn)
EC50 [1]: > 300 µM (not active)
EC50 [2]: 29 µM (active)

C=CCNC(=S)Nc1cc(Cl)ccc1OC
EC50 [1]: > 300 µM (not active)
EC50 [2]: > 300 µM (not active)

CC(C)CC(=O)NC(N=C(S)Nc1sc2c(c1C#N)CCCC2)C(Cl)(Cl)Cl (stereo not drawn)
EC50 [3]: 3.06 µM (active)
EC50 (Streptokinase A): 3.23 µM (active)
EC50 (Streptococcus): 6.32 µM (active)
AC50 [4]: 0.974 µM (active)

CCc1ccc(-c2ccc3nnc(SCC(N)=O)n3n2)cc1
EC50 [3]: 1.83 µM (active)
EC50 (Streptokinase A): > 150 µM (not active)
EC50 (Streptococcus): 18.6 µM (active)

O=c1c(F)cn(C2CCCO2)c(=O)n1Cc1c(F)cccc1Cl (stereo not drawn)
EC50 [5]: > 150 µM (inactive)
EC50 [6]: > 38 µM (not active)

CS(=O)(=O)Nc1ccc(C2=NN(C(=O)C3CCCCC3)C(c3cccs3)C2)cc1 (stereo not drawn)
EC50 [3]: 4.11 µM (active)
EC50 (Streptokinase A): > 150 µM (not active)
EC50 (Streptococcus): 6.38 µM (active)

CCOC(=O)c1ccc(Oc2nc(NC(C)(C)C)nc(N(C)C)n2)cc1
EC50 [5]: > 150 µM (inactive)
EC50 [6]: > 38 µM (not active)

Cc1ccc(Cn2c(=N)c(C(=O)NCC3CCCO3)cc3c(=O)n4ccccc4nc32)cc1 (stereo not drawn)
EC50 [1]: > 300 µM (not active)
EC50 [2]: > 300 µM (not active)

Cc1ccc(C2(C)NC(=O)N(CC(=O)Nc3cc(C)on3)C2=O)cc1 (stereo not drawn)
AC50 (Cytochrome P450 3A4): 25.1 µM (inconclusive)
AC50 (Cytochrome P450 2C9): 14.1 µM (inconclusive)

Nc1ccc(/N=N\c2ccc(-c3ccc(O)cc3)cc2)c2ccc(S(=O)(=O)O)cc12
AC50 (Cytochrome P450 2C19): 6.31 µM (inconclusive)
AC50 (Cytochrome P450 2C9): 5.01 µM (inconclusive)

COc1cccc(C(=O)NNC(=O)c2ccccc2Br)c1
EC50 [5]: > 150 µM (inconclusive)
EC50 [6]: > 38 µM (not active)

Cn1c(SCc2ccccc2)nnc1-c1ccc2c(c1)OCO2
EC50 [7]: 95.9 µM (active)
EC50 (H4): 29.8 µM (inconclusive)

O=C1Nc2cc(C(=O)N3CCN(c4ccccn4)CC3)ccc2S/C1=C\c1ccccc1
EC50 [3]: 3.55 µM (active)
EC50 (Streptokinase A): > 150 µM (not active)
EC50 (Streptococcus): 18.2 µM (active)

Cc1nn(-c2ccccc2)c(N2CCCC2)c1/C=C1\N=C(c2ccc(F)cc2)OC1=O
EC50 [1]: > 300 µM (inconclusive)
EC50 [2]: 56.7 µM (active)

COc1ccc(-c2cc(C(=O)N3CC4(C)CC3CC(C)(C)C4)no2)cc1 (stereo not drawn)
AC50 [4]: 0.442 µM (active)

Cc1ccc(NCCC(=O)c2ccc(Cl)cc2)cc1
AC50 (Cytochrome P450 3A4): 12.6 µM (inconclusive)
AC50 (Cytochrome P450 2C9): 3.98 µM (inconclusive)

O=C(NCc1nc(-c2ccc(C(F)(F)F)cc2)no1)Nc1ccc(OC(F)(F)F)cc1
AC50 [4]: 2.68 µM (active)

Brc1ccc(CN2CCN(Cc3c[nH]c4ccccc34)CC2)cc1
AC50 (INS1): 6.68 µM (active)

COc1ccc(S(=O)(=O)n2ccc(-c3cnc(-c4ccccc4)s3)n2)cc1
EC50 [7]: > 120 µM (not active)
EC50 (H4): 41.2 µM (active)

Cc1ccccc1Oc1nc(-c2ccccn2)nc2ccccc12
EC50 [3]: 12.4 µM (active)
EC50 (Streptokinase A): > 150 µM (not active)
EC50 (Streptococcus): 18.5 µM (active)
AC50 (INS1): 2.19 µM (active)

CCCCc1nc(NCc2ccccc2)c(C#N)c2c1CCCC2
EC50 [3]: 9.14 µM (active)
EC50 (Streptokinase A): 2.96 µM (active)
EC50 (Streptococcus): 19.1 µM (active)

CCn1cc(C(=O)NCc2ccccn2)c(=O)c2cc(S(=O)(=O)N3CCCCC3)ccc21
EC50 [1]: 154 µM (active)
EC50 [2]: 102 µM (active)

c1nc(NCc2ccc3c(c2)OCO3)c2cc(-c3ccc4c(c3)OCCO4)ccc2n1
AC50 (INS1): 10.4 µM (active)

COc1ccc(OC)c(C(=O)CSc2nccc(-c3ccc(Br)cc3)n2)c1
AC50 [4]: 1.33 µM (active)

CC1=NN(C(N)=S)C(=O)C1N=Nc1c(Cl)cc([N+](=O)[O-])cc1Cl (stereo not drawn)
EC50 [1]: > 300 µM (not active)
EC50 [2]: 85.9 µM (active)

Cn1c(=O)c(-c2cc(F)cc(F)c2)nc2cnc(N3CCNCC3)nc21
AC50 (Cytochrome P450 3A4): 31.6 µM (inconclusive)
AC50 (Cytochrome P450 2C9): 25.1 µM (inconclusive)

COc1ccc(Nc2nnc(-c3ccccc3)c3ccccc23)cc1C(=O)N1CCCCC1
AC50 [4]: 31.2 µM (active)

O=c1cnc2cncnc2n1Cc1ccccc1
AC50 (Cytochrome P450 2C19): 39.8 µM (inconclusive)
AC50 (Cytochrome P450 3A4): 20 µM (inconclusive)
AC50 (Cytochrome P450 2C9): 31.6 µM (inconclusive)

CSc1nnc(N2C(=O)C(O)=C(C(=O)c3ccco3)C2c2ccccc2)s1 (stereo not drawn)
EC50 [1]: > 300 µM (inconclusive)
EC50 [2]: 76.6 µM (active)

Oc1c(C(c2ccccn2)N2CCC(Cc3ccccc3)CC2)cc(Cl)c2cccnc12 (stereo not drawn)
EC50 [5]: 13.9 µM (inconclusive)
EC50 [6]: 1.46 µM (active)

O=C(CN1C(=O)S/C(=C\c2ccccn2)C1=O)Nc1ccccc1
EC50 [5]: 89.4 µM (active)
EC50 [6]: > 38 µM (not active)

COc1ccc(OC)c(-c2csc(NC(=O)c3ccc(F)cc3)n2)c1
AC50 [4]: 2.38 µM (active)

COc1ccc(C2C(C#N)=C(N)OC3=C2C(=O)CCC3)cc1OC (stereo not drawn)
EC50 [1]: > 300 µM (not active)
EC50 [2]: > 300 µM (not active)

C1=C(c2ccccc2)Nc2nnnn2C1c1cccs1 (stereo not drawn)
EC50 [1]: > 300 µM (not active)
EC50 [2]: > 300 µM (not active)

O=C(O)c1cc(O)ccc1NC(=O)C(c1ccccc1)c1ccccc1
AC50 [4]: > 195 µM (inactive)

COC(=O)c1ccc(-n2c(C)cc(/C=N/n3cnnc3)c2C)cc1
EC50 [1]: > 300 µM (not active)
EC50 [2]: > 300 µM (not active)

CCCCNc1cc(=O)oc2ccccc12
AC50 (Cytochrome P450 3A4): 17.8 µM (inconclusive)
AC50 (Cytochrome P450 2C9): 6.31 µM (inconclusive)

COc1cc(/C=N/Nc2ccc(F)cc2F)cc(OC)c1OC
EC50 [5]: 20.8 µM (active)
EC50 [6]: > 38 µM (not active)

CC(C)CC(NC(=O)C(NC(=O)C(Cc1ccc(OCc2ccccc2)cc1)NC(=O)OC(C)(C)C)C(C)C)C(N)=O (stereo not drawn) (Boc-Tyr(Bn)-Val-Leu-NH2; configuration not given here)
AC50 [4]: 24.4 µM (active)
